Experimental data reported in patent US6693128B2, “Substituted dicinnamoylquinides and their use in augmentation of adenonsine function” (Vanderbilt University, priority 2001, dated 2004).

What was measured:
human (es) transporter = target: T1, human (es) transporter (Homo sapiens, UniProt Q99808); experiment: Inhibition of [3H]adenosine transport in homogenates of U-937 cell culture; assay type: biochemical; settings: 10 μM [3H]adenosine; U-937 cell homogenates; HEPES buffer, 37° C., 30 min; read-out: inhibitory constant Ki, transport of [3H]adenosine
T1 construct: homogenates of U-937 cell culture (American Tissue Culture Compository), expressing the human (es) transporter; endogenous in cells; host or cells: U-937 (human) cell membrane homogenates
T1 sequence (Q99808 1-456): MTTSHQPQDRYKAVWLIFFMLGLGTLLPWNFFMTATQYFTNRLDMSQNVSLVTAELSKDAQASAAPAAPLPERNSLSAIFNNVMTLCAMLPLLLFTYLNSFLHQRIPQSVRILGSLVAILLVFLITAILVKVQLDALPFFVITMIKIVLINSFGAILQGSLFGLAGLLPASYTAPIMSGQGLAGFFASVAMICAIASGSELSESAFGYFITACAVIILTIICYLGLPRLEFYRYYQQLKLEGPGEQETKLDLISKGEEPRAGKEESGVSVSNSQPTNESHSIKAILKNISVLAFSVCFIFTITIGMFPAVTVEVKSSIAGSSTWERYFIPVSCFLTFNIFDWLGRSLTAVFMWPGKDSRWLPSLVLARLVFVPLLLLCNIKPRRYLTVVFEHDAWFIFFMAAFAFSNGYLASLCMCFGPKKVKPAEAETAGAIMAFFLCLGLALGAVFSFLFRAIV
Method: Inhibition of [^3H]adenosine transport in homogenates of U-937 cell culture (American Tissue Culture Compository), expressing the human (es) transporter is performed according to Gu et al, J. Neurochem 67, 972-977 (1996), which is incorporated herein by reference. Rate of transport is determined in HEPES buffer at 37° C. for 30 min (with choline replacing sodium). Full displacement curves for the adenosine transporter are obtained by using 8 concentrations of each compound, increasing by a factor of 2 and ranging from 0.25 μM-32 μM. Nonspecific transport is defined with 1 μM NBTI ((S)-(4-nitrobenzyl)-6-thioinosine). Cell cultures are grown in high glucose Dulbecco's modified Eagle's medium supplemented with NaHCO3 (40 mM), 10% fetal bovine serum (Gibco), 400 mg/L geneticin, and 0.1 mM hypoxanthine.
Briefly, the cells are cultured at 37° C. under a CO2/air (5/95, v/v) in tissue culture flasks (75 cm^2, Falcon). When reaching confluency (70-80%), cells are trypsinized and harvested by centrifugation. Harvested cells are re-suspended in 50 mM TRIS buffer at 4° C. (0.1 mg/mL), the cell membranes are disrupted by Polytron homogenization (12,500 rpm for 25 s), and the suspension is centrifuged at 30,000×g for 60 min. The supernatent is discarded and remaining the pellet is resuspended in 50 mM TRIS buffer to 0.2 mg-0.5 mg protein/mL and frozen at −80° C. until used. […]

[1] = target: T2, human adenosine transporter (Homo sapiens, UniProt Q99808); experiment: Displacement of [3H]NBTI binding in U-937 cell homogenates; settings: mean ± SEM; for Ki: [3H]NBTI 2-4 nM, 50 mM TRIS pH 7.5, 4° C., 1.5 h, Cheng-Prusoff, read-out: Affinity (Ki μM); for Hill slope: log-logit analysis of competition binding data
T2 construct: homogenates of U-937 cell culture (American Tissue Culture Compository), expressing the human (es) transporter; endogenous in cells; host or cells: U-937 (human) cell membrane homogenates
T2 sequence (Q99808 1-456): T1 sequence (Q99808 1-456)
Method: Neurochem 39, 184-191 (1982), incorporated herein by reference. The cell membranes in final concentration of 0.03 mg protein/mL are incubated with [^3H]NBTI at 2-4 nM concentration in 50 mM TRIS buffer (pH 7.5) at 4° C. for 1.5 h in a total volume of 1.0 mL. Nonspecific binding is defined with 10 μM NBTI. Each determination is carried out in triplicate. Bound and free [^3H]NBTI are separated by vacuum filtration through fiberglass filters (Schleicher & Schuell, Keene, N.H.) that are presoaked with 0.3% polyethylenimine for 10 min, using a Brandel […] cell harvester. The filters are washed three times for 10 s with ice-cold 50 mM TRIS buffer and placed in 10 mL scintillation fluid (Cytoscint, ICN). Beta spectrometry is performed using a Beckman […] instrument at 47% counting efficiency. IC50 values and Hill slopes (nH) are calculated from log-logit analysis of competition binding data. Ki values of the competing ligand are calculated from IC50 values using the Cheng-Prusoff equation, Ki=IC50/(1+L/KD) […] Data are expressed as mean±standard error of the mean (SEM).

Ki (human (es) transporter) [µM] | Ki [1] [µM] | Hill slope [1] | melting point [°C] | Structure (SMILES)
1.2 | 0.96 ± 0.13 | 0.94 ± 0.02 | 142 to 144 | COc1cc(C=CC(=O)OC2CC3(O)CC(OC3=O)C2OC(=O)C=Cc2ccc(O)c(OC)c2)ccc1O (stereo not drawn) [3,4-diferuloyl-1,5-quinide]
 | 0.96 ± 0.07 | 1.22 ± 0.11 | 233 to 235 | O=C(C=Cc1ccc(O)cc1)OC1CC2(O)CC(OC2=O)C1OC(=O)C=Cc1ccc(O)cc1 (stereo not drawn) [3,4-dicoumaroyl-1,5-quinide]
 | 1.3 | 1.12 ± 0.00 | 172 | O=C(C=Cc1ccc(Cl)cc1)OC1CC2(O)CC(OC2=O)C1OC(=O)C=Cc1ccc(Cl)cc1 (stereo not drawn) [3,4-di(4-chlorocinnamoyl)-1,5-quinide]
 | 2.4 ± 0.7 | 1.00 ± 0.03 |  | O=C(C=Cc1ccc(O)c(O)c1)OC1CC2(O)CC(OC2=O)C1OC(=O)C=Cc1ccc(O)c(O)c1 (stereo not drawn) [3,4-dicaffeoyl-1,5-quinide]
